In series [1] the test system is Mycobacterium tuberculosis. The experiment in a line: Anti-tuberculosis activity against Mycobacterium tuberculosis H37Rv assessed as inhibition of microbial growth at 6.25 ug/ml by MABA method. The format is functional.
Series [2] concerns Mycobacterium tuberculosis. The experiment in a line: Anti-tuberculosis activity against Mycobacterium tuberculosis H37Rv assessed as inhibition of microbial growth at 3.125 ug/ml by MABA method. The series is classed as functional. (The colour change of resazurin is a common sign of viable cells or microbes.)
Series [3] has as its system Mycobacterium tuberculosis. The experiment in a line: Anti-tuberculosis activity against Mycobacterium tuberculosis H37Rv assessed as inhibition of microbial growth at 1.56 ug/ml by MABA method. The series is classed as functional.
The test system of series [4] is Mycobacterium tuberculosis. The experiment in a line: Anti-tuberculosis activity against Mycobacterium tuberculosis H37Rv assessed as inhibition of microbial growth by MABA method. The format is functional, organism-based.
The next series relates to L929. The experiment in a line: Cytotoxicity against mouse L929 cells assessed as reduction cell viability after 5 days by MTT assay. The format is cell-based. Particulars: l929, 120 h.

pIC50: −log10 of the molar value. Bounds are passed on as bounds.

`COC(=O)c1ccc2ccccc2n1`: in series [1], the inhibition (as a rule, the share of the control response that was lost under treatment) at 6.25 µg/mL is no less than 90%.

Turning to `NNC(=O)c1cc(C23CC4CC(CC(C4)C2)C3)c2ccccc2n1`, the inhibition at 3.125 µg/mL in series [2] was determined as 99%. In addition, the inhibition at 1.56 µg/mL in series [3] amounted to 80%. In addition, in series [4], the pIC50 (usually −log10 of the IC50, conventionally taken in molar units) is 6.41; the MIC90 (commonly an inhibitory concentration at the 90% level, which refers to growth in some studies and to a panel of isolates in others) was 3.12 µg/mL. For the same molecule, in series [1], the inhibition at 6.25 µg/mL worked out at 99%. The Activity in the series on L929 is greater than 200 µg/mL.

For the molecule `CCCCC(O)c1cc(C23CC4CC(CC(C4)C2)C3)c2ccccc2n1` (centres undefined), in series [4], the pIC50 was 5.66 and the MIC90 was 6.25 µg/mL. Also, the inhibition at 6.25 µg/mL in series [1] was 91%. The Activity with L929 was greater than 200 µg/mL.

Take `NNC(=O)c1cc(CC2CC3CCC2C3)c2ccccc2n1` (centres undefined): in series [4], the pIC50 was 5.71 and the MIC90 turned out to be 6.25 µg/mL. Besides, the inhibition at 6.25 µg/mL in series [1] worked out at 92%. Further, the Activity with L929 is greater than 200 µg/mL.

On to `CC1CCCCC1c1cc(C(=O)NN)nc2ccccc12` (centres undefined), for which the inhibition at 3.125 µg/mL in series [2] was determined as 99%. For the same molecule, the inhibition at 1.56 µg/mL in series [3] was found to be 77%. In addition, in series [4], the pIC50 was 6.34 and the MIC90 came to 3.12 µg/mL. Also, the inhibition at 6.25 µg/mL in series [1] stood at 99%. Also, the Activity in the series on L929 is greater than 200 µg/mL.

`CC(C)(C)C1CCC(c2cc(C(=O)NN)nc3ccccc23)CC1` (centres undefined): the inhibition at 3.125 µg/mL in series [2] is 99%. For the same molecule, in series [3], the inhibition at 1.56 µg/mL came out at 82%. Further, in series [4], the pIC50 is 6.46 and the MIC90 was 3.12 µg/mL. The inhibition at 6.25 µg/mL in series [1] worked out at 99%. In addition, the Activity in the series on L929 was greater than 200 µg/mL.

Consider `CC1CCC(c2cc(C(=O)NN)nc3ccccc23)CC1` (centres undefined), for which, in series [4], the pIC50 was 5.45 and the MIC90 was found to be 6.25 µg/mL. For the same molecule, in series [1], the inhibition at 6.25 µg/mL amounted to 84%. Further, in the series on L929, the Activity was greater than 200 µg/mL.

`NNC(=O)c1cc(C2CCC(C(F)(F)F)CC2)c2ccccc2n1` (centres undefined): in series [4], the pIC50 is 5.56 and the MIC90 stood at 6.25 µg/mL. Further, the inhibition at 6.25 µg/mL in series [1] is 89%. In the series on L929, the Activity is greater than 200 µg/mL.

Consider `COC1CCCC(c2cc(C(=O)NN)nc3ccccc23)C1` (centres undefined), for which, in series [4], the pIC50 is 5.53 and the MIC90 came to 6.25 µg/mL. Further, the inhibition at 6.25 µg/mL in series [1] turned out to be 90%. For the same molecule, the Activity in the series with L929 was greater than 200 µg/mL.

With `CO[C@H]1CC[C@H](c2cc(C(=O)NN)nc3ccccc32)CC1`, in series [4], the pIC50 is 4.49 and the MIC90 was 6.25 µg/mL. The inhibition at 6.25 µg/mL in series [1] worked out at 32%. Also, the Activity in the series on L929 is greater than 200 µg/mL.

In the case of `CO[C@H]1CC[C@@H](c2cc(C(=O)NN)nc3ccccc32)CC1`, in series [4], the pIC50 is 5.63 and the MIC90 came to 6.25 µg/mL. Also, the inhibition at 6.25 µg/mL in series [1] came to 90%. The Activity with L929 was greater than 200 µg/mL.

In the case of `C=CCC(O)c1cc(C23CC4CC(CC(C4)C2)C3)c2ccccc2n1` (centres undefined), in series [4], the pIC50 was 4.64 and the MIC90 amounted to 6.25 µg/mL. In addition, the inhibition at 6.25 µg/mL in series [1] is 44%. The Activity in the series on L929 is greater than 200 µg/mL.

Consider `OC(c1ccccc1)c1cc(C23CC4CC(CC(C4)C2)C3)c2ccccc2n1` (centres undefined), for which, in series [4], the pIC50 is 5.51 and the MIC90 was 6.25 µg/mL. The inhibition at 6.25 µg/mL in series [1] stood at 86%. The Activity with L929 was greater than 200 µg/mL.

Regarding `COc1ccc(C(O)c2cc(C34CC5CC(CC(C5)C3)C4)c3ccccc3n2)cc1` (centres undefined), in series [4], the pIC50 is 4.08 and the MIC90 is 6.25 µg/mL. Moreover, the inhibition at 6.25 µg/mL in series [1] is 47%. In the series with L929, the Activity was greater than 200 µg/mL.

On to `Cc1ccc(C(O)c2cc(C34CC5CC(CC(C5)C3)C4)c3ccccc3n2)cc1` (centres undefined), for which, in series [4], the negative logarithm of the IC50 (pIC50) is 5.30 and the MIC90 was determined as 6.25 µg/mL. In series [1], the inhibition at 6.25 µg/mL amounted to 76%. For the same molecule, the Activity in the series with L929 was greater than 200 µg/mL.

As to `OC(c1ccc(F)cc1)c1cc(C23CC4CC(CC(C4)C2)C3)c2ccccc2n1` (centres undefined), in series [2], the inhibition at 3.125 µg/mL was found to be 99%. Also, the inhibition at 1.56 µg/mL in series [3] was determined as 69%. Besides, in series [4], the pIC50 is 6.50 and the MIC90 worked out at 3.12 µg/mL. Moreover, in series [1], the inhibition at 6.25 µg/mL was determined as 99%. Besides, in the series with L929, the Activity was greater than 200 µg/mL.

As for `CN(C)c1ccc(C(O)c2cc(C34CC5CC(CC(C5)C3)C4)c3ccccc3n2)cc1` (centres undefined), in series [4], the pIC50 was 3.48 and the MIC90 came to 6.25 µg/mL. For the same molecule, in series [1], the inhibition at 6.25 µg/mL is 4%. Besides, the Activity in the series on L929 is greater than 200 µg/mL.

As for `CCC(O)c1cc(C23CC4CC(CC(C4)C2)C3)c2ccccc2n1` (centres undefined), in series [4], the pIC50 was 5.16 and the MIC90 came out at 6.25 µg/mL. The inhibition at 6.25 µg/mL in series [1] worked out at 73%. Moreover, the Activity with L929 is greater than 200 µg/mL.

Turning to `CCCC(O)c1cc(C23CC4CC(CC(C4)C2)C3)c2ccccc2n1` (centres undefined), in series [4], the pIC50 was 5.35 and the MIC90 was determined as 6.25 µg/mL. Moreover, the inhibition at 6.25 µg/mL in series [1] is 86%. Also, in the series with L929, the Activity was greater than 200 µg/mL.

Turning to `OC(c1cc(C23CC4CC(CC(C4)C2)C3)c2ccccc2n1)c1cccc2ccccc12` (centres undefined), in series [4], the pIC50 was 3.74 and the MIC90 was 6.25 µg/mL. Besides, in series [1], the inhibition at 6.25 µg/mL was found to be 9%. For the same molecule, the Activity in the series with L929 was greater than 200 µg/mL.

Regarding `O=C(c1cc(C23CC4CC(CC(C4)C2)C3)c2ccccc2c1)N1CCNCC1`, in series [4], the pIC50 is 5.51 and the MIC90 worked out at 6.25 µg/mL. Moreover, the inhibition at 6.25 µg/mL in series [1] amounted to 82%. Moreover, the Activity in the series on L929 is greater than 200 µg/mL.

As for `O=C(NC1CCN(Cc2ccccc2)CC1)c1cc(C23CC4CC(CC(C4)C2)C3)c2ccccc2c1`, in series [4], the pIC50 was 5.82 and the MIC90 turned out to be 6.25 µg/mL. Besides, the inhibition at 6.25 µg/mL in series [1] stood at 90%. In addition, the Activity in the series on L929 is greater than 200 µg/mL.

`CN1CCN(C(=O)c2cc(C34CC5CC(CC(C5)C3)C4)c3ccccc3c2)CC1`: in series [4], the pIC50 is 5.23 and the MIC90 was determined as 6.25 µg/mL. The inhibition at 6.25 µg/mL in series [1] stood at 87%. In addition, the Activity in the series on L929 was greater than 200 µg/mL.

On to `O=C(c1cc(C23CC4CC(CC(C4)C2)C3)c2ccccc2c1)N1CCCCC1`, for which, in series [4], the pIC50 was 3.92 and the MIC90 is 6.25 µg/mL. In series [1], the inhibition at 6.25 µg/mL worked out at 9%. In the series with L929, the Activity is greater than 200 µg/mL.

For the molecule `O=C(c1cc(C23CC4CC(CC(C4)C2)C3)c2ccccc2c1)N1CCN(c2ccccn2)CC1`, in series [4], the pIC50 is 4.20 and the MIC90 amounted to 6.25 µg/mL. Besides, the inhibition at 6.25 µg/mL in series [1] was 8%. The Activity in the series on L929 was greater than 200 µg/mL.

With `O=C(c1cc(C23CC4CC(CC(C4)C2)C3)c2ccccc2c1)N1CCCC1`, in series [4], the negative logarithm of the IC50 (pIC50) was 4.88 and the MIC90 was found to be 6.25 µg/mL. Besides, the inhibition at 6.25 µg/mL in series [1] was determined as 53%. The Activity in the series on L929 was greater than 200 µg/mL.

As to `O=C(c1cc(C23CC4CC(CC(C4)C2)C3)c2ccccc2c1)N1CCOCC1`, in series [4], the pIC50 was 3.96 and the MIC90 worked out at 6.25 µg/mL. The inhibition at 6.25 µg/mL in series [1] came to 14%. For the same molecule, in the series with L929, the Activity is greater than 200 µg/mL.

Turning to `O=C(c1cc(C23CC4CC(CC(C4)C2)C3)c2ccccc2c1)N1CCN(c2ccccc2)CC1`, in series [4], the pIC50 was 6.06 and the MIC90 amounted to 6.25 µg/mL. Also, the inhibition at 6.25 µg/mL in series [1] came to 90%. Besides, the Activity in the series on L929 was greater than 200 µg/mL.

On to `O=C(NO)c1cc(C23CC4CC(CC(C4)C2)C3)c2ccccc2c1`, for which, in series [4], the pIC50 is 5.93 and the MIC90 came to 6.25 µg/mL. In series [1], the inhibition at 6.25 µg/mL amounted to 91%. In addition, in the series with L929, the Activity was greater than 200 µg/mL.

Turning to `COC(=O)c1cc(C23CC4CC(CC(C4)C2)C3)c2ccccc2n1`, the inhibition at 6.25 µg/mL in series [1] was no less than 90%.

As for `NNC(=O)c1ccncc1` [ISONIAZID], in series [4], the MIC99 (usually an inhibitory concentration at the 99% level, which refers to growth in some studies and to a panel of isolates in others) came out at 0.1 µg/mL.

For `CO[C@H]1/C=C/O[C@@]2(C)Oc3c(C)c(O)c4c(O)c(c(/C=N/N5CCN(C)CC5)c(O)c4c3C2=O)NC(=O)/C(C)=C\C=C\[C@H](C)[C@H](O)[C@@H](C)[C@@H](O)[C@@H](C)[C@H](OC(C)=O)[C@@H]1C` [RIFAMPIN], the MIC99 in series [4] came to 0.2 µg/mL.

Source of the values: ChEMBL document CHEMBL3407381, “Synthesis, biological evaluation and 3D QSAR study of 2,4-disubstituted quinolines as anti-tuberculosis agents” (Eur J Med Chem, 2015).
